Consider one compound from patent US20060106026A1, “4-(4-methylpiperazin-1-ylmethyl)-n-[4-pyridin-3-yl)pyrimidin-2-ylamino)phenyl]-benzamide for treating anaplastic thyroid cancer” (priority 2002, published 2006).

Read-outs that look alike come from different tables or passages of the source.

A word on the IC50: it is the concentration at which inhibition is half-maximal.

In one test the test system is TPC-1. The following applies: read-out: IC50 values, mean (50% reduction in cell growth); TPC-1, 72 h of incubation, n=3. The source says:
(§1) Human anaplastic thyroid carcinoma cell lines FRO and ARO were used with respectively, undetectable or mutant p53 in codon 273 (Fagin et al., J. Clin. Invest. 1993, 91:179-184). Human papillary carcinoma cell line NPA has p53 mutations in codons 223 and 226 (Fagin et al., J. Clin. Invest. 1993, 91:179-184), while TPC-1 and KTC-1 papillary thyroid carcinoma cell lines are wild type for p53 (Kurebayashi et al., J. Clin. Endocrinol. Metab. 2000, 85:2889-96). Stable transfection with a vector expressing wild type p53 was used to produce the 1F3 cell line from FRO cells (Zeki et al., Int. J. Cancer, 1998, 75:391-5). […] Primary human thyroid cell cultures were established as described previously (Kawabe et al., J. Clin. Endocrinol. Metab., 1989, 68:1174-83) and maintained in a 2:1 mixture of F12 Nutrient Mixture and DEM, supplemented with 3% fetal bovine serum and penicillin-streptomycin (all reagents from Invitrogen Life Technologies, Paisley, UK).
(§2) The kinetics of cell growth were examined using a cytometer as follows: cells were seeded at a density of 0.5 or 0.1×10^5 cells per well in 12-well culture plates. […] Both experiments were performed at least three times.

For the next test, the system named is primary thyrocytes (PT). The settings on record: read-out: IC50 values, mean (50% reduction in cell growth), 72 h of incubation, n=3.
From the text: as §1, §2

A further test concerns FRO.
From the text: as §1, §2

For another test, the system named is NPA.
From the text: as §1, §2

The next test has as its system ARO.
From the text: as §1, §2

In another test the test system is KTC-1. The following applies: read-out: IC50 values, mean (50% reduction in cell growth); KTC-1, 72 h of incubation, n=3.
From the text: as §1, §2

Where [1] appears, read: read-out: IC50 (cytostatic effect).
Where [2] appears, read: read-out: IC50 values, mean (50% reduction in cell growth), 72 h of incubation, n=3.

In the case of `CS(=O)(=O)O.Cc1ccc(NC(=O)c2ccc(CN3CCN(C)CC3)cc2)cc1Nc1nccc(-c2cccnc2)n1` [SALT I, 4-[(4-methyl-1-piperazin-1-ylmethyl)-N-[4-methyl-3-[[4-(3-pyridinyl)-2-pyrimidinyl]amino]phenyl]benzamide methanesulfonate], the IC50 came out at 29.5 µM in the test on TPC-1; 24.7 µM with primary thyrocytes (PT); 7.8 µM with FRO (setting [1]); 6.4 µM in the test on FRO (setting [2]); 16 µM in the test with NPA (read-out: IC50, as stated in the discussion, NPA cells); 15.6 µM in the test with NPA (read-out: IC50 values, mean (50% reduction in cell growth), NPA, 72 h of incubation, n=3). Also, the IC50 came out at 5.9 µM with ARO (setting [1]), 8.1 µM in the test with ARO (setting [2]) and 22.6 µM in the test on KTC-1.
